Tests used:
GluN1/2A NMDARs = GluN1/2A NMDARs (Rattus norvegicus, UniProt P35439+Q00959); assay type: cell-based; details: 10 μM compound; 100 μM NMDA plus 10 μM glycine; voltage pulse to +60 mV
GluN1/2A receptors = GluN1/2A receptors (Rattus norvegicus, UniProt P35439+Q00959); assay type: cell-based; details: for δ, fraction of the total transmembrane voltage field felt by the blocker at its binding site: calculated from V0 by Equation 4; for Hill coefficient (nH): tsA201 cells, GluN1/2A, 1 mM glutamate, −65 mV, fit of Equation 2; for V0, change in voltage that results in an e-fold change in the IC50: roughly twice the IC50 of each drug (3 μM 5, 5 μM 7, 2 μM 8, 1 μM 11), 9 voltages −105 to +55 mV, fit of Equation 3
GluN1/2A receptors, sequence (Q00959 23-1464, other chains not shown): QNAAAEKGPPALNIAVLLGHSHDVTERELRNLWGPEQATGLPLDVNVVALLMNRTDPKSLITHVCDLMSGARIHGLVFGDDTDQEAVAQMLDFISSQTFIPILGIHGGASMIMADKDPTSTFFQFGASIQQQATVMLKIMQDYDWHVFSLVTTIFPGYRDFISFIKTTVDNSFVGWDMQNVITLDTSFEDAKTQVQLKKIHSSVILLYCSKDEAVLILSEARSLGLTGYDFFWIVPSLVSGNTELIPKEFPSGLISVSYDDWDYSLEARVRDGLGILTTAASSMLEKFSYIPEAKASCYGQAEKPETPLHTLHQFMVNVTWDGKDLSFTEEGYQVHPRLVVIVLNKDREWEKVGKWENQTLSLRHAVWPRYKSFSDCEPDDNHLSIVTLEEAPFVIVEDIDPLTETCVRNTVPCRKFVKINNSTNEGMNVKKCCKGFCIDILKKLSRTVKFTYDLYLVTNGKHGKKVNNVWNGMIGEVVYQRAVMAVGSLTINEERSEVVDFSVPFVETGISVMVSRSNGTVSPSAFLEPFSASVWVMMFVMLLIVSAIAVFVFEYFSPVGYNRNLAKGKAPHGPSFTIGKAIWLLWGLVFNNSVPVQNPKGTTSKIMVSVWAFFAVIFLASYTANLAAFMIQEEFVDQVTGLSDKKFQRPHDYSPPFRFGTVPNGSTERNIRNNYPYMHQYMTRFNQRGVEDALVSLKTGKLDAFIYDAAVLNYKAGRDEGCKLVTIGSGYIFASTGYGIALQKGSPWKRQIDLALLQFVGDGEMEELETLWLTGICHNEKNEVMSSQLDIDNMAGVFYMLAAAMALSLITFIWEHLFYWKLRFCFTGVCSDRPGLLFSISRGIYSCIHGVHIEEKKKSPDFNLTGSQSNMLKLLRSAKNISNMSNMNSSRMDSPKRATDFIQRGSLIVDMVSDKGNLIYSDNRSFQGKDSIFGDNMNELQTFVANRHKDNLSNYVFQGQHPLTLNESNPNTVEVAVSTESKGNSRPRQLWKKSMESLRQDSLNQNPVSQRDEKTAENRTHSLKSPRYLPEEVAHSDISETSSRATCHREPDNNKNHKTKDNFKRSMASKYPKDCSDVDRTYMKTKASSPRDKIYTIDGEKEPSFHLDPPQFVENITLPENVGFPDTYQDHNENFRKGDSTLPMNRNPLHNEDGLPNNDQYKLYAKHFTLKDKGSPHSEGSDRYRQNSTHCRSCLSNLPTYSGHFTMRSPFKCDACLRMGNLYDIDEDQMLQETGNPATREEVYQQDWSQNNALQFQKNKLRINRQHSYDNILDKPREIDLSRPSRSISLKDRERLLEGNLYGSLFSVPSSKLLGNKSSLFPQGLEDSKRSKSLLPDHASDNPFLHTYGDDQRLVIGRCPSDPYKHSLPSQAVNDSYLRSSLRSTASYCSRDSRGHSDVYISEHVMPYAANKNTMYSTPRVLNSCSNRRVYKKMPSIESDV

GluN1/2A NMDARs, sequence (Q00959 23-1464, other chains not shown): as above

Compound	percentage block at +60 mV (GluN1/2A NMDARs) [%]	IC50 (GluN1/2A receptors) [nM]	δ, fraction of the total transmembrane voltage field felt by the blocker at its binding site (GluN1/2A receptors)	Hill coefficient (nH) (GluN1/2A receptors)	V0, change in voltage that results in an e-fold change in the IC50 (GluN1/2A receptors) [mV]
CC12CC3CC(C)(C1)CC(N)(C3)C2 [Compound 5, memantine, reference compound]	8.1 ± 4.0	1840 ± 390	0.91 ± 0.08	1.07 ± 0.27	
CC12CC3CC1(C)C1(C)CC3(N)CC21C.Cl [Compound 7, (3,4,8,9-Tetramethyltetracydo[4.4.0.0^3,9.0^4,8]dec-1-yl)amme hydrochloride]	2.4 ± 5.1		0.99 ± 0.05	0.98 ± 0.08	26.5 ± 1.8
CC12CC3CC1(C)C1(C)CC3(CN)CC21C.Cl [Compound 8, (3,4,8,9-Tetramethyltetracydo[4.4.0.0^3,9.0^4,8]dec-1-yl)methylamine hydrochloride]	14.7 ± 4.5		0.87 ± 0.05	1.01 ± 0.11	29.9 ± 1.9
